Laboratory results as given in patent publication US20020049157A1, “Use of proteasome inhibitors for treating cancer, inflammation, autoimmune disease, graft rejection and septic shock” (priority 1998, published 2002).

Legend:
Bik = assay: Immunoblotting of Bik in wild type Namalwa cells; format: cell-based, human; conditions: 6 h; lactacystin 6 μM, staurosporine 0.3 μM
Experimental: Jurkat cells, wild type Namalwa cells and Bcl-xL transfected Namalwa cells were treated with medium (lanes 1), staurosporine (0.3 μM, lanes 2) and lactacystin (6 μM, lanes 3) for 6 H. The proteins from the mitochondrial fraction of these cells were analyzed by immunoblotting and the amount of Bik, Bcl-xL, Bax, and Bak evaluated. The same membranes were used sequentially and probed with different antibodies against these factors. A nonspecific band recognized by a monoclonal antibody against cytochrome […] (COX) was used as control for even sample loading in the lanes.

CD25 = CD25 (IL-2Rα) upregulation by two-color flow cytometry; format: cell-based, human; conditions: PHA; LAC 10 μM added in the beginning of the culture
Experimental: CD25 expression on T cells was evaluated by anti-CD25-PE/anti-CD3-FITC two-color flow cytometry. Similar results were obtained in two independent experiments, and a representative one is shown. The data are presented as two color histograms in forms of contours, as well as in an overlay histogram.
In the four systems of T and B cell activation and proliferation studied in the first section, the growth promoting activity of IL-2 is indirectly (for stimulation by PHA, anti-CD3, and anti-CD28 plus ionomycin), or directly (for SAC plus IL-2) involved. We then investigated the role of proteasome in IL-2Rα expression and IL-2 production. […] Under the experimental condition used, the viability of the LAC-treated cell was reasonable (>80% at 40 h) as described in the previous section as LAC was added only once initially. Moreover, no consistent change of IL-2 production in LAC-treated cells was a functional indication that the cell viability was reasonable and is not of a concern in interpreting the data. The results from this section indicate that IL-2Rα upregulation but not IL-2 production is proteasome-dependent, and the suppressed IL-2Rα expression likely contributes to LAC's inhibitory effect on T cells activation and proliferation. The Proteasome Activity is Critically Required Between G0 and G1/S Boundary in T Cells […]

Cyclin E-associated CDK = assay: Immunoprecipitation kinase assay, Cyclin E-associated CDK; format: cell-based, human; conditions: PHA-activated T cells; LAC 10 μM added once at 0 h
Experimental: Tonsillar T cells were activated with PHA (2 μg/ml) for a period as indicated in each graph. LAC (10 μM) was added once at 0 h. The cells were harvested at 16 h, 24 h, or 40 h as indicated. An equal amount of lysate protein ([…]) was precipitated with rabbit anti-CDK4, anti-CDK2 or anti-Cyclin E antisera (2.5 μg Ab/sample). The immune complexes were assayed for their kinase activities using histone H1 as a substrate. (A) CDK4 kinase activity. (B) CDK2 kinase activity. (C) Cyclin E-associated CDK activity. The membrane in (C) was subsequently hybridized with anti-Cyclin E (1 μg/ml) followed by ^125I-protein A for the evaluation of the protein level of Cyclin E.
Since at the late G1 phase Cyclin E is the predominant partner of CDK2 (Sherr, 1993, Cell 73:1059), we next examined the Cyclin E-associated CDK activity.
Lymphocytes were lysed by a lysis buffer as used in the immunoblotting (Chen et al., 1996, supra), and cleared lysates were quantitated for their protein content. For immunoprecipitation, 50 μl of rabbit antisera against CDK2, CDK4 or Cyclin E were added to the lysates equivalent to 20 or 40 μg protein depending on the experiment. […] The proteins were then transferred to PVDF membranes and the signals were detected by autoradiography.

nitric oxide synthase = assay: Northern blot of nitric oxide synthase expression in macrophages; format: cell-based, mouse; conditions: 2 μg/ml LPS
Experimental: Nitric oxide synthase expression was measured with Northern blot analysis.
BALB/c mice were injected i.p. with 3 ml of 3% thioglycollate broth. Three days later, peritoneal exudate macrophages of the mice were harvested and washed at 170 g for 10 min at 4° C. […]
The expression of inducible nitric oxide synthase at the mRNA level was analyzed by Northern blot as described in our previous publication (Shan et al., 1994, supra). After an overnight culture, the mouse macrophages were harvested and their total cellular RNA was extracted with the guanidine/CsCl method. The RNA (10 μg/lane) was resolved in 1% agarose-formaldehyde gels and blotted onto nylon membranes. A 562-bp fragment corresponding to the mouse iNOS cDNA (Xie et al., 1992, Science 256:225) was obtained by reverse transcription/PCR using the mouse macrophages total RNA as templates. The fragment was labeled with ^32p with random primers and used as a probe for the Northern blot.

20S proteasome = 20S proteasome (Rattus norvegicus, UniProt P28075); assay: 20S proteasome chymotrypsin-like activity, positive control for LAC; format: biochemical
Experimental: Human PBMC were cultured in the absence or presence of 2 μg/ml PHA or 10 nM RAPA for 16 h-70 h as indicated. The cells were then harvested, and the chymotrypsin-like activity of whole cells lysates was assayed in the absence or presence of 20 μM proteasome inhibitor LAC. The data are presented as arbitrary units of fluorescence intensity per 20 μg lysate protein. The experiments were repeated three times and a representative one is shown. Samples are in duplicate and the mean±SD is shown. (A) Total chymotrypsin-like activity in the lysate of PBMC. (B) Lactacystin-inhibitable chymotrypsin-like activity in the lysate of 70 h PBMC. […] LAC was always added to the lysates during the proteinase assay 15 min before the addition of the substrate. The solid bars represent the activity in the presence of LAC. The net proteasome activities are calculated as the total activity minus the remaining activity after the LAC addition.
PBMC were cultured with or without PHA (2 μg/ml) and RAPA (10 nM). After 16 h-70 h, the cells were harvested and sonicated in 300 μl PBS on ice for 40 sec. Twenty micrograms of protein per sample from the cleared lysates were supplemented to 100 μl with 0.1 M Tris buffer (pH 8.2). […] The samples were then diluted to 2 ml with 0.1 M Tris pH8.2, and measured for their fluorescent intensity by a PTI fluorometer (Photo Technology International, South Brunswick, N.J.). […]

For `CC(=O)N[C@@H](CSC(=O)[C@]1([C@@H](O)C(C)C)NC(=O)[C@H](C)[C@@H]1O)C(=O)O` [LAC, lactacystin], the “accumulation of Bik in Namalwa cells” value (Bik) was “accumulates”, the “CD25 upregulation in CD3+ T cells” value (CD25) was “significantly inhibited” and the “Cyclin E-associated kinase activity” value (Cyclin E-associated CDK) was “almost completely inhibited”. For the same compound, the “expression of mRNA for NO synthase” value (nitric oxide synthase) was “decreases the expression of mRNA for NO synthase”, the inhibition at 10 µM (20S proteasome; LAC at 10 μM) was 90% and the “inhibitory effect on the 20S proteasome activity” value (20S proteasome; LAC increased to 20 μM) was “did not further increase the inhibitory effect”.
